This is an account of results in ChEMBL document CHEMBL1914359, “Bendigoles D-F, bioactive sterols from the marine sponge-derived Actinomadura sp. SBMs009” (Bioorg Med Chem, 2011).

Assay type in all cases: cell-based
The nature of data set [1]: Inhibition of IL1-beta-induced GFP-tagged NFkappaB nuclear translocation in CHO cells pretreated for 4 hrs before IL1-beta challenge using Hoechst staining by fluorescence microscopy relative to control. As to conditions: Cricetulus griseus.
Data set [2] concerns the target T1, Glucocorticoid receptor (Homo sapiens) (UniProt P04150).
T1 sequence (whole entry): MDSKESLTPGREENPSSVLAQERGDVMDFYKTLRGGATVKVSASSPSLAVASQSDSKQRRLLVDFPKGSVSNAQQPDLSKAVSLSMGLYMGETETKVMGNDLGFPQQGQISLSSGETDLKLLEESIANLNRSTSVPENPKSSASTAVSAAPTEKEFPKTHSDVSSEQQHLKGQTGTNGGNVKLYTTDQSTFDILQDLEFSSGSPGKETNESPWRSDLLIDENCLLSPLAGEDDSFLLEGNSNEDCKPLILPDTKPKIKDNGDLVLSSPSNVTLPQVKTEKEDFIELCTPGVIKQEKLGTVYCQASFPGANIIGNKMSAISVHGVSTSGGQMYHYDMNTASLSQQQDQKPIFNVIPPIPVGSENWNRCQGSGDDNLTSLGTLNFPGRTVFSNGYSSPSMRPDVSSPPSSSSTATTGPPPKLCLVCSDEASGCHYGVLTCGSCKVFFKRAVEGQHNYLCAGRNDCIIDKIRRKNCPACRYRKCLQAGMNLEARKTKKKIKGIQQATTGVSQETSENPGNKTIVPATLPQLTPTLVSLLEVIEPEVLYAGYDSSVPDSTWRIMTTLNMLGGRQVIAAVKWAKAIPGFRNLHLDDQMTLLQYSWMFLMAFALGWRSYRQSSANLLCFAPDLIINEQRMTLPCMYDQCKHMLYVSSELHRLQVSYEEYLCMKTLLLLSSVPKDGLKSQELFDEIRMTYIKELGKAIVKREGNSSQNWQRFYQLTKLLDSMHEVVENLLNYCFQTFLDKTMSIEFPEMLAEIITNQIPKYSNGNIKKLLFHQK
The data set can be described thus: Inhibition of EGFP-tagged GR nuclear translocation in human U2OS cells at 2.5 uM after 1 hr using Hoechst staining by fluorescence microscopy relative to control.

For data set [3], the target named is T1, Glucocorticoid receptor (Homo sapiens). The data set can be described thus: Inhibition of EGFP-tagged GR nuclear translocation in human U2OS cells at 250 uM after 1 hr using Hoechst staining by fluorescence microscopy relative to control.
The target is the same in data set [4]. The data set can be described thus: Inhibition of EGFP-tagged GR nuclear translocation in human SH-SY5Y cells at 2.5 uM after 1 hr using Hoechst staining by fluorescence microscopy relative to control.
The target is the same in data set [5]. The data set can be described thus: Inhibition of EGFP-tagged GR nuclear translocation in human SH-SY5Y cells at 250 uM after 1 hr using Hoechst staining by fluorescence microscopy relative to control.
Data set [6] has the same target. The data set can be described thus: Inhibition of EGFP-tagged GR nuclear translocation in human HaCaT cells at 2.5 uM after 1 hr using Hoechst staining by fluorescence microscopy relative to control.
For data set [7] the target is unchanged. The data set can be described thus: Inhibition of EGFP-tagged GR nuclear translocation in human HaCaT cells at 250 uM after 1 hr using Hoechst staining by fluorescence microscopy relative to control.
The subject of another data set is L929. Nature of the data set: Cytotoxicity against mouse L929 cells after 5 days by MTT assay. As to conditions: for Activity: mouse, l929, 120 h. On the technique in general: Tetrazolium assays rely on reduction of a dye to a coloured formazan, in cell work by metabolically active cells.

The source made the active and inactive calls. No cut-off for these calls is given here.

The term IC50 denotes the concentration at which inhibition is half-maximal.

For `C[C@H](CCC(=O)O)[C@H]1CC[C@H]2[C@@H]3[C@H](O)CC4=CC(=O)C=C[C@]4(C)[C@H]3C[C@H](O)[C@]12C` (relative stereo), in data set [1], the IC50 came out at 71 µM. Moreover, the inhibition result in data set [2], in data set [3], in data set [4], in data set [5], in data set [6] and in data set [7] was “Active” throughout. Moreover, in the data set on L929, the Activity result is reported as “Non-toxic”.
With `C[C@H](C(=O)O)[C@H]1CC[C@H]2[C@@H]3[C@H](O)CC4=CC(=O)C=C[C@]4(C)[C@H]3C[C@H](O)[C@]12C` (relative stereo), the inhibition result in data set [2], in data set [3], in data set [4], in data set [5], in data set [6] and in data set [7] was “Active” in each case. The same compound yielded a half-maximal inhibitory concentration (IC50) with L929 (Mus musculus, L929, 120 h) of 30 µM.
Take `CC(=O)[C@@H](C)[C@H]1CC[C@H]2[C@@H]3[C@H](O)CC4=CC(=O)C=C[C@]4(C)[C@H]3C[C@H](O)[C@]12C` (relative stereo): the inhibition entry in data set [2], in data set [3], in data set [4], in data set [5], in data set [6] and in data set [7] was “Active” in each case. Moreover, in the data set with L929, the Activity result is given as “Non-toxic”.
